For five compounds, IC50 results are on record in patent US10308667B2, “Oxadiazolopyridine derivatives for use as ghrelin O-acyl transferase (GOAT) inhibitors” (Boehringer Ingelheim International GmbH, priority 2016, dated 2019).

SMILES strings stand for the structures.

human GOAT, sequence (Q96T53 whole entry): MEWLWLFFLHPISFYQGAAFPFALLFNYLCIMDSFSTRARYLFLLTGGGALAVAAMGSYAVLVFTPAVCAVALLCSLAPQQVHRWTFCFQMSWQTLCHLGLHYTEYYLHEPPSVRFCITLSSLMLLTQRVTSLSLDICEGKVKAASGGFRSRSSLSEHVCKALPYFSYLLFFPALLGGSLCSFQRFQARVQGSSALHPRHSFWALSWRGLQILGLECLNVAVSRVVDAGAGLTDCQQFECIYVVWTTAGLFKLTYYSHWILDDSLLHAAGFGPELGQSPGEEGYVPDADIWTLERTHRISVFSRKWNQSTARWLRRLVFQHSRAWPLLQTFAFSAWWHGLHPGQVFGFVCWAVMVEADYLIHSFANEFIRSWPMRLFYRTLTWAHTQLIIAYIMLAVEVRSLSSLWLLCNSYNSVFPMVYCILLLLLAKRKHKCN

In the assay the target is human GOAT (Homo sapiens (Human), UniProt Q96T53). The assay can be described thus: Determination of hGOAT Activity in HEK293 Cells after Incubation with Test Compound. Particulars: HEK293 cells stably transfected with preproghrelin and human GOAT; octanoate-BSA 100 μM; acyl-ghrelin in medium by ELISA after 5 hours. The format is cell-based. The method, boiled down:
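HEK293 cells stably expressing preproghrelin and human GOAT were given serum-free medium with 100 μM octanoate-BSA plus compound (0.3% DMSO) for 5 h. Acyl-ghrelin in the medium was quantified by ELISA (A405, standard curve) as % of vehicle. IC50 was fitted from 8 concentrations.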
(In general: ELISA stands for enzyme-linked immunosorbent assay.)
Compound `Cc1nc2nonc2c(N)c1Cc1ccc(Br)c(=O)[nH]1` [Example 163, 6-(7-Amino-5-methyl-[1,2,5]oxadiazolo[3,4-b]pyridin-6-ylmethyl)-3-bromo-1H-pyridin-2-one] displayed an IC50 of 2.5 nM.

As for `Cc1nc2nonc2c(N)c1Cc1cccc(C#N)n1` [Example 164, 6-(7-Amino-5-methyl-[1,2,5]oxadiazolo[3,4-b]pyridin-6-ylmethyl)-pyridine-2-carbonitrile], half-maximal inhibition (IC50) required 7.4 nM.

`Cc1nc2nonc2c(N)c1Cc1nc(C#N)cc(C(F)F)n1` [Example 165, 2-(7-amino-5-methyl-[1,2,5]oxadiazolo[3,4-b]pyridin-6-ylmethyl)-6-(difluoromethyl)pyrimidine-4-carbonitrile] returned an IC50 of 14 nM.

Compound `Cc1nc2nonc2c(N)c1Cc1ncc(Cl)c(C(F)F)n1` [Example 166, 6-[5-chloro-4-(difluoromethyl)pyrimidin-2-yl]methyl-5-methyl-[1,2,5]oxadiazolo[3,4-b]pyridin-7-amine] yielded a half-inhibitory concentration (IC50) of 0.38 nM.

`Cc1nc2nonc2c(N)c1Cc1nc(C(F)F)c(Cl)c(C(F)F)n1` [Example 167, 6-[5-chloro-4,6-bis(difluoromethyl)pyrimidin-2-yl]methyl-5-methyl-[1,2,5]oxadiazolo[3,4-b]pyridin-7-amine] came in with a half-maximal inhibitory concentration (IC50) of 0.82 nM.

The term IC50 denotes the concentration needed to halve the response being measured. Low values mean higher potency, high ones lower potency.
